In patent publication US8530452B2, “Tricyclic boron compounds for antimicrobial therapy” (Micurx Pharmaceuticals, Inc., priority 2011, dated 2013):
Read-outs that look alike come from different tables or passages of the source. One block for each compound: values may come before it.

Columns and labels:
[1] = tested on: Gram-negative pathogens; assay: Antibacterial activity against Gram-negative pathogens in vitro (overall statements); type: cell-based; conditions: Table 1 pathogens overall
Excerpt: (§1) The in vitro activity of compounds provided herein may be assessed by standard testing procedures such as the determination of minimum inhibitory concentration (MIC) as described in Approved Standard. Methods for Dilution Antimicrobial Susceptibility Tests for Bacteria that Grow Aerobically, 3rd ed., 1993, published by the National Committee for Clinical Laboratory standards, Villanova, Pa., USA. Low MIC values indicate high antibacterial activity, while high MIC values reveal a reduced antibacterial activity (with higher drug concentration required for pathogen eradication in the latter instance).

[2] = rat PK model of intravenous administration; type: in vivo; conditions: for AUC: in vivo
Excerpt: To further elucidate therapeutic potential of drug compounds, pharmacokinetic (PK) data is used to establish the key parameters predictive of the therapy outcome, such as area under the curve (AUC) for a plot monitoring the change in the systemic drug concentration over time. Thus, a higher AUC value indicates a greater exposure to the drug, commonly associated with a greater therapeutic potential due to a higher amount of drug available to combat the infection in a mammal. In contrast, a lower AUC value indicates a reduced exposure to the drug under study, resulting in a reduced amount of antibiotic available to combat bacterial infestations. To that end, the compounds provided herein have been tested in the rat PK model of intravenous administration performed analogously to methods described in the monograph Current Protocols in Pharmacology, 2005, 7.1.1-7.1.26, John Wiley & Sons, Inc.

[3] = tested on: P. aeruginosa; assay: MIC determination, antibacterial activity in vitro; type: cell-based, Pseudomonas aeruginosa; conditions: for MIC: Pseudomonas aeruginosa, read-out: MIC against P. aeruginosa; for reduced potency / loss of activity vs. P. aeruginosa compared to Example 7: MIC ratio vs Example 7
Excerpt: as §1

[4] = tested on: P. aeruginosa; assay: P. aeruginosa neutropenic mouse thigh infection model; type: in vivo; conditions: for CFU reduction / CFU reduction, fold: side-by-side test Example 1 vs Example 10, dose not given; for reduction in the bacterial colony-forming units (CFU) / reduction in the bacterial colony-forming units (CFU), fold: 30 mg/kg
Procedure: To establish the efficacy of the compounds provided herein in vivo, testing in a P. aeruginosa neutropenic mouse thigh infection model was performed with subcutaneous administration of test compounds analogously to the method described by Andes et al. in Antimicrobial Agents and Chemotherapy, 2002, 46(11), 3484-3489. In this model, a greater reduction in the bacterial colony-forming units (CFU) indicates more beneficial therapeutic effect (more bacterial eradication), while a lower CFU reduction indicates a lower effect (less bacterial eradication). The in vivo antibacterial effect is also referred to as efficacy, in contrast to the term potency commonly used for in vitro activity (expressed as MIC).

[5] = tested on: A. baumannii; assay: MIC determination, antibacterial activity in vitro; type: cell-based, Acinetobacter baumannii; conditions: for MIC: Acinetobacter baumannii, Strain A. baumannii MABA0001, read-out: MIC, A. baumannii (footnote b); for reduced potency / loss of activity vs. A. baumannii compared to Example 7: MIC ratio vs Example 7
Excerpt: as §1

[6] = tested on: K. pneumoniae; assay: MIC determination, antibacterial activity in vitro; type: cell-based, Klebsiela pneumoniae; conditions: for MIC: Klebsiella pneumoniae, Strain K. pneumoniae KPN1004, read-out: MIC, K. pneumoniae (footnote c)
Excerpt: as §1

[7] = tested on: E. coli; assay: MIC determination, antibacterial activity in vitro; type: cell-based, Escherichia coli; conditions: MIC ratio vs Example 24
Excerpt: as §1

[8] = intravenous, dose not given, Example 1 vs Example 10, read-out: AUC
[9] = intravenous, 10 mg/kg, read-out: exposure (AUC)
[10] = subcutaneous, side-by-side test Example 3 vs Example 24
[11] = another test, side-by-side Example 3 vs Example 25

Compound: Cl.NC[C@H]1OB2O[C@H](CO)COc3c(F)ccc1c32 [Example 18, ((2S,8R)-2-(Aminomethyl)-5-fluoro-7,8-dihydro-2H-1,6,9-trioxa-9a-borabenzo[cd]azulen-8-yl)methanol hydrochloride]
antibacterial activity (potency) in words [1]: reduced activity

AUC [2, 8]: ~5370 ng·h/mL
MIC [3]: 8 µg/mL
Compound: Cl.NCC1OB(O)c2c(OCCCO)cccc21 (stereo not drawn) [Reference Example 10, 3-(Aminomethyl)-7-(3-hydroxypropoxy)benzo[c][1,2]oxaborol-1(3H)-ol hydrochloride, reference compound]
CFU reduction [4]: about 1.3 log
CFU reduction, fold [4]: about 20 fold

Compound: Cl.NCC1OB2OC(CCO)COc3cccc1c32 (stereo not drawn) [Example 12, 2-(2-(Aminomethyl)-7,8-dihydro-2H-1,6,9-trioxa-9a-borabenzo[cd]azulen-8-yl)ethanol hydrochloride]
activity vs. A. baumannii in words ([5]; compared to Example 7): total loss of activity
reduced potency / loss of activity vs. P. aeruginosa compared to Example 7 [3]: 4 fold

Compound: Cl.NCC1OB2OCCOc3cccc1c32 (stereo not drawn) [compound 24, (7,8-Dihydro-2H-1,6,9-trioxa-9a-borabenzo[cd]azulen-2-yl)methanamine hydrochloride, reference compound]
AUC [2, 9]: ~5300 ng·h/mL
reduction in the bacterial colony-forming units (CFU) [4, 10]: about 1.7 log
reduction in the bacterial colony-forming units (CFU), fold [4, 10]: about 50 fold

Compound: Cl.NCC1OB2O[C@@H](CO)COc3cccc1c32 (stereo partly drawn) [Example 4, ((8S)-2-(Aminomethyl)-7,8-dihydro-2H-1,6,9-trioxa-9a-borabenzo[cd]azulen-8-yl)methanol hydrochloride]
MIC [6]: 2000 µg/mL
MIC [5]: 4000 µg/mL
MIC [3]: 2 to 4 µg/mL

Compound: CC1(CO)COc2cccc3c2B(OC3CN)O1.Cl (stereo not drawn) [Example 13, (2-(Aminomethyl)-8-methyl-7,8-dihydro-2H-1,6,9-trioxa-9a-borabenzo[cd]azulen-8-yl)methanol hydrochloride]
reduced potency / loss of activity vs. A. baumannii compared to Example 7 [5]: about 4 fold

Compound: Cl.NCC1OB2OCC(CO)Oc3cccc1c32 (stereo not drawn) [Example 11, (2-(Aminomethyl)-7,8-dihydro-2H-1,6,9-trioxa-9a-borabenzo[cd]azulen-7-yl)methanol hydrochloride]
reduced potency / loss of activity vs. A. baumannii compared to Example 7 [5]: 4 fold
reduced potency / loss of activity vs. P. aeruginosa compared to Example 7 [3]: 4 fold

Compound: Cl.NCC1OB2O[C@H](CO)COc3cccc1c32 (stereo partly drawn) [Example 1, ((8R)-2-(Aminomethyl)-7,8-dihydro-2H-1,6,9-trioxa-9a-borabenzo[cd]azulen-8-yl)methanol hydrochloride]
AUC [2, 8]: ~11500 ng·h/mL
improvement in exposure (AUC) over reference compound of Example 10 ([2]; intravenous): more than 2 fold
MIC [3]: 2 to 4 µg/mL
superiority in the bacterial reduction over Example 10 ([4]; side-by-side test): 79 fold
CFU reduction [4]: about 3.2 log
CFU reduction, fold [4]: about 1584 fold

Compound: Cl.NCC1OB(O)c2c(OCC(CO)CO)cccc21 (stereo not drawn) [compound 23, 2-(((3-(Aminomethyl)-1-hydroxy-1,3-dihydrobenzo[c][1,2]oxaborol-7-yl)oxy)methyl)propane-1,3-diol hydrochloride]
antibacterial activity (potency) in words [1]: essentially inactive

Compound: CC(O)C1COc2cccc3c2B(OC3CN)O1.Cl (stereo not drawn) [Example 14, 1-(2-(Aminomethyl)-7,8-dihydro-2H-1,6,9-trioxa-9a-borabenzo[cd]azulen-8-yl)ethanol hydrochloride]
reduced potency / loss of activity vs. A. baumannii compared to Example 7 [5]: about 4 fold

Compound: Cl.NCC1OB2OC(CO)COc3cccc1c32 (stereo not drawn) [Example 7]
MIC [6]: 4000 µg/mL
MIC [5]: 4000 µg/mL
MIC [3]: 2 to 4 µg/mL

Compound: Cl.NC[C@H]1OB2O[C@H](CO)COc3cccc1c32 [Example 3, ((2S,8R)-2-(Aminomethyl)-7,8-dihydro-2H-1,6,9-trioxa-9a-borabenzo[cd]azulen-8-yl)methanol hydrochloride]
improved activity against K. pneumoniae as compared to reference compound of Example 24 ([6]; MIC ratio vs Example 24): 2 fold
AUC [2, 9]: ~14100 ng·h/mL
improvement in exposure (AUC) over reference compound of Example 24 ([2]; intravenous, 10 mg/kg): 2.7 fold
improvement in exposure (AUC) over reference compound of Example 25 ([2]; intravenous, 10 mg/kg): over 2 fold
improved activity against P. aeruginosa as compared to reference compound of Example 24 ([3]; MIC ratio vs Example 24): 2 fold
MIC [3]: 2 to 4 µg/mL
improved activity against E. coli as compared to reference compound of Example 24 [7]: 2 fold
higher degree of pathogen reduction compared to reference compound of Example 24 ([4]; 30 mg/kg both agents): over 80 fold
more efficient in thigh infection model compared to reference compound of Example 25 ([4]; 30 mg/kg both agents): about 12 fold
reduction in the bacterial colony-forming units (CFU) [4, 10]: about 3.6 log
reduction in the bacterial colony-forming units (CFU), fold [4, 10]: about 3981 fold
reduction in the bacterial colony-forming units (CFU) [4, 11]: about 3.44 log
reduction in the bacterial colony-forming units (CFU), fold [4, 11]: about 2754 fold

Compound: Cl.NCC1OB(O)c2c(OCC[C@H](O)CO)cccc21 (stereo partly drawn) [compound 22, (2S)-4-((3-(Aminomethyl)-1-hydroxy-1,3-dihydrobenzo[c][1,2]oxaborol-7-yl)oxy)butane-1,2-diol hydrochloride]
antibacterial activity (potency) in words [1]: essentially inactive

Compound: Cl.NC[C@H]1OB(O)c2c(OCCCO)cccc21 [compound 25, (S)-3-(Aminomethyl)-7-(3-hydroxypropoxy)benzo[c][1,2]oxaborol-1(3H)-ol hydrochloride, reference compound]
AUC ([2]; iv, 10 mg/kg): ~6240 ng·h/mL
antibacterial activity (potency) in words [1]: active
reduction in the bacterial colony-forming units (CFU) [4, 11]: about 2.37 log
reduction in the bacterial colony-forming units (CFU), fold [4, 11]: about 234 fold
